Data reported in ChEMBL document CHEMBL6182867, “Discovery of ultra short β-peptoids with selective activity against drug-resistant Mycobacterium tuberculosis” (Eur J Med Chem, 2025).
≈ marks a conversion by molar mass, not a printed value. Calls of active or inactive are those of the source. The calls are words filed in the database; no cut-off is given here.

Legend:
[1] = system: Mycobacterium tuberculosis; experiment: Antitubercular activity against Mycobacterium tuberculosis H37Rv ATCC 27294 by microplate alamar blue assay; type: functional
[2] = system: Mycobacterium tuberculosis; experiment: Antitubercular activity against Mycobacterium tuberculosis H37Rv by microplate alamar blue assay; type: functional
[3] = system: Mycobacteroides abscessus; experiment: Antibacterial activity against Mycobacterium abscessus ATCC 19977 incubated for 3 days by microplate alamar blue assay; type: functional; details: ATCC 19977, 72 h, time 3 day
Mycobacteroides chelonae = experiment: Antibacterial activity against Mycobacteroides chelonae ATCC 35752 incubated for 3 days by microplate alamar blue assay; type: functional; details: ATCC 35752, 72 h, time 3 day
Mycobacterium marinum = experiment: Antibacterial activity against Mycobacterium marinum ATCC 927 incubated for 5 days by microplate alamar blue assay; type: functional; details: ATCC 927, 120 h, time 5 day
Mycobacterium avium = experiment: Antibacterial activity against Mycobacterium avium ATCC 15769 incubated for 6 days by microplate alamar blue assay; type: functional; details: ATCC 15769, 144 h, time 6 day
Mycobacterium kansasii = experiment: Antibacterial activity against Mycobacterium kansasii ATCC 12478 incubated for 7 days by microplate alamar blue assay; type: functional; details: ATCC 12478, 168 h, time 7 day
[4] = system: Mycobacterium tuberculosis; experiment: Antitubercular activity against Mycobacterium tuberculosis KMA 1354 by microplate alamar blue assay; type: functional
[5] = system: Mycobacterium tuberculosis; experiment: Antitubercular activity against Mycobacterium tuberculosis KMA 3899 by microplate alamar blue assay; type: functional
[6] = system: Mycobacterium tuberculosis; experiment: Antitubercular activity against Mycobacterium tuberculosis KMA 4244 by microplate alamar blue assay; type: functional
[7] = system: Mycobacterium tuberculosis; experiment: Antitubercular activity against Mycobacterium tuberculosis KMA 4439 by microplate alamar blue assay; type: functional
[8] = system: Mycobacterium tuberculosis; experiment: Antitubercular activity against Mycobacterium tuberculosis KMA 5282 by microplate alamar blue assay; type: functional
[9] = system: Mycobacterium tuberculosis; experiment: Bactericidal activity against Mycobacterium tuberculosis H37Rv measured up to 7 days by luminescence assay; type: functional; details: time <= 7 day
[10] = Cytotoxicity against African green monkey Vero cells measured after 3 days by resazurin dye based fluorescence assay; type: toxicity, cell-based; details: African green monkey (Chlorocebus sabaeus)
Mitochondrial membrane [11] = experiment: Induction of […] membrane potential loss in Mycobacterium tuberculosis H37Rv at <=MIC measured after 15 mins by DiOC2 dye based fluorescence assay; type: cell membranes
Mitochondrial membrane [12] = experiment: Induction of […] membrane potential loss in Mycobacterium tuberculosis H37Rv at <=MIC measured after 24 hrs by DiOC2 dye based fluorescence assay; type: cell membranes

Compound: NNC(=O)c1ccncc1 [ISONIAZID]
- MIC90 [1]: 0.46 µM
- MIC90 [2]: 0.31 µM
- MIC90 [3]: > 8 µM
- MIC90 (Mycobacteroides chelonae): > 8 µM
- MIC90 (Mycobacterium marinum): > 8 µM
- MIC90 (Mycobacterium avium): > 8 µM
- MIC90 (Mycobacterium kansasii): > 8 µM
- MIC90 [4]: 0.46 µM
- MIC90 [5]: 0.43 µM
- MIC90 [6]: 1.55 µM
- MIC90 [7]: 0.41 µM
- MIC90 [8]: 0.98 µM
- MBC99 [9]: 250 µg/mL (≈ 1820 µM)

Compound: CC(C)N(C(=O)CNCC(c1ccccc1)c1ccccc1)C(C)C
- MIC90 [1]: 20.4 µg/mL

Compound: COCCN(CCOC)C(=O)CCNC(=O)CCNCc1cccc2ccccc12
- MIC90 [1]: 3.87 µg/mL

Compound: O=[N+]([O-])c1cn2c(n1)OC[C@@H](OCc1ccc(OC(F)(F)F)cc1)C2 [PRETOMANID]
- MIC90 [1]: 0.1 µM
- MBC99 [9]: 480 µg/mL (≈ 1340 µM)

Compound: CC(C)N(C(=O)CNCc1cccc2ccccc12)C(C)C
- MIC90 [1]: 43.3 µg/mL
- MIC90 [2]: 88.8 µg/mL
- MIC90 [4]: 85 µg/mL
- MIC90 [5]: 49.9 µg/mL
- MIC90 [6]: 95.5 µg/mL
- MIC90 [7]: 95.2 µg/mL
- MIC90 [8]: 93.6 µg/mL

Compound: COCCN(CCOC)C(=O)CCNCCC(c1ccccc1)c1ccccc1
- MIC90 [1]: 8.9 µg/mL

Compound: NC(=O)c1cnccn1 [PYRAZINAMIDE]
- MIC90 [2]: 0.43 µM
- MIC90 [4]: 0.25 µM
- MIC90 [5]: 0.24 µM
- MIC90 [6]: 1.51 µM
- MIC90 [7]: 0.49 µM
- MIC90 [8]: 0.92 µM

Compound: CC/C(=C(\c1ccccc1)c1ccc(OCCN(C)C)cc1)c1ccccc1 [TAMOXIFEN]
- IC50 at 3 days [10]: 13.9 µM

Compound: COCCN(CCOC)C(=O)CCN(CC1CCCO1)C(=O)CCNCC(c1ccccc1)c1ccccc1 (stereo not given)
- MIC90 [1]: 6.22 µg/mL

Compound: O=C(CCNCCC(c1ccccc1)c1ccccc1)N1CCCC1
- MIC90 [1]: 23.5 µg/mL

Compound: CCN(CC)C(=O)CN(Cc1cccc2ccccc12)C(=O)CNCCC(c1ccccc1)c1ccccc1
- MIC90 [1]: 4.84 µg/mL

Compound: CC(C)N(C(=O)CN(Cc1cccc2ccccc12)C(=O)CNCc1cccs1)C(C)C
- MIC90 [1]: 11.6 µg/mL

Compound: Nc1c2c(nc3ccccc13)CCCC2 [TACRINE]
- IC50 at 3 days [10]: 90.7 µM

Compound: N#CC(C#N)=NNc1cccc(Cl)c1 [CARBONYL CYANIDE M-CHLOROPHENYLHYDRAZONE]
- IC50 at 3 days [10]: 10.8 µM
- Activity (Mitochondrial membrane [11]): inactive
- Activity (Mitochondrial membrane [12]): Active

Compound: O=C(CCNCc1cccc2ccccc12)NCCC(c1ccccc1)c1ccccc1
- MIC90 [1]: 43.8 µg/mL

Compound: CC(=O)NC[C@H]1CN(c2ccc(N3CCOCC3)c(F)c2)C(=O)O1 [LINEZOLID]
- MIC90 [1]: 0.93 µM
- MIC90 [2]: 0.97 µM
- MIC90 [3]: 88 µM (≈ 29.7 µg/mL)
- MIC90 (Mycobacteroides chelonae): 5.13 µM (≈ 1.73 µg/mL)
- MIC90 (Mycobacterium marinum): 17.4 µM (≈ 5.88 µg/mL)
- MIC90 (Mycobacterium avium): 93.5 µM (≈ 31.5 µg/mL)
- MIC90 (Mycobacterium kansasii): 85.6 µM (≈ 28.9 µg/mL)
- MIC90 [4]: 0.91 µM
- MIC90 [5]: 0.48 µM
- MIC90 [6]: 1 µM
- MIC90 [7]: 0.95 µM
- MIC90 [8]: 1.89 µM
- MBC99 [9]: 7310 µg/mL (≈ 21700 µM)

Compound: CC(C)N(C(=O)CCN(CC(c1ccccc1)c1ccccc1)C(=O)CCNCC1CCCO1)C(C)C (stereo not given)
- MIC90 [1]: 24.2 µg/mL
